Reference: patent EP0037777A1, “Process for preparation of cycloalcoyl propanol amines useful as medicine” (PIERRE FABRE S.A., priority 1980, dated 1981)
≈ marks a conversion by molar mass, not a printed value. Structures can show the parent of a compound that is named as a salt.

Test: Solubility
Format: physicochemical
Settings: for Solubilités : soluble dans le diméthyl sulfoxyde: in dimethyl sulfoxide (DMSO); for solubility: in water, read-out: Solubilités : soluble dans l'eau

Structure (SMILES) | Solubilités : soluble dans le diméthyl sulfoxyde | solubility
CC(C)NCC(O)COCC1CCCCC1 (centres unmarked) [Exemple 4, isopropylamino-3, cyclohexyl méthoxy-1 propanol-2 maléate] | 18% | 100 mg/mL (≈ 436 mM)
C#CC(C)(C)NCC(O)COC1CCCCC1 (centres unmarked) [Exemple 3, (diméthyl-1,1 propyne-2 yl-1) amino-3, cyclohexyloxy-1 propanol-2 oxalate] | – | 20 mg/mL
CC(C)(C)NCC(O)COCC1CC=CCC1 (centres unmarked) [Exemple 8, tertiobutylamino-3 (cyclohexen-3 yl-1) méthoxy-1 propanol-2, maléate] | 15% | 100 mg/mL (≈ 414 mM)
CC(C)(C)NCC(O)COCCC1=CCC2CC1C2(C)C (centres unmarked) [Exemple 6, tertiobutylamino-3 [(diméthyl-6-6, bicyclo (3,1,1)hepten-2 yl)-2 éthoxy7-1 propanol-2, maléate] | 10% | 20 mg/mL (≈ 67.7 mM)
CC1CCCCC1OCC(O)CNC(C)(C)C (centres unmarked) [Exemple 1, tertiobutylamino-3 (méthyl-2 cyclohexyloxy)-1 propanol-2, maléate] | 15% | 100 mg/mL (≈ 411 mM)
CC(C)(C)NCC(O)COCC1CCCCC1 (centres unmarked) [Exemple 5, tertiobutylamino-3 cyclohexyl méthoxy-1, propanol-2, maléate] | 10% | 25 mg/mL (≈ 103 mM)
